Measurements: patent publication US11026956B2, “Cancer drug and uses” (Health Clinics Limited, priority 2013, dated 2021)

Legend:
[1] = compared with arteether and artemether; cited from earlier work
MCF-7 cells = experiment: Percentage of survival of MCF-7 cells by LDH content; format: cell-based; details: 72 hours; for survival of MCF-7 cells, therapeutic administered individually: dosed once or multiple times (re-dosing at 24 and 48 h); for percent of survival of MCF-7 cells, administered more than once: re-dosing at 24 and 48 h; for percent of survival of MCF-7 cells, administered more than once / effect on percent of survival of MCF-7 cells, dosed singly: without Artesunate; for effect on percent of survival of MCF-7 cells, dosed singly: single dose
Method: To assess the effect of Artesunate in combination with several other therapeutics, MCF-7 cells were treated with different concentrations of these therapeutic compounds either once or through repeated dosing. The percentage of survival was calculated based on the LDH contents of cells. 1. 100 ul of cells suspension […]) were added to each well (3000 cells/well), with a total of 5 plates were seeded. […] [table] The appropriate volume of 100% Ethanol was added to Artesunate to obtain a concentration of 10 mg/ml. This was further diluted in 100% Ethanol to 1 mg/ml (1:10). 4 ug/ml was obtained by diluting 1 mg/ml (1:250) in complete medium. Further double decreasing dilutions were carried out in complete medium containing 0.4% Ethanol. […] This was further diluted in complete medium to 16 mM (1:6.25). Further double decreasing dilutions were carried out in complete medium. 2 mg of MMC were resuspended in 4 ml of sterile water to obtain a stock at 0.5 mg/ml. A second dilution of MMC was carried out by diluting 0.5 mg/ml in complete medium to 0.1 mg/ml (1:5). 4. Once the treatments were ready, 50 ul/well of Artesunate was added to the plates. […] 5. 50 ul of complete medium at 0.4% Ethanol and 50 ul of just complete medium were added to the corresponding control wells already containing either 100 ul of cells (positive control) or just 100 ul of complete medium (background control) 6. 100 ul of MMC at 100 ug/ml was added to the corresponding wells already containing 100 ul of cells in complete medium as a negative control and finally, plates were placed in the incubator. […] Media was removed from the wells by using a multichannel pipette. Wells were washed with 200 ul/well of PBS previously warmed at 37° C. 100 ul of Titron 1× in PBS previously warmed at 37° C. were added to the wells. Subsequently, the plate was placed at 37° C. in the dark for 45 min. 50 ul from each well was transferred to a non sterile 96-well plate. 50 ul of LDH substrate were added to each well of the non sterile plate already containing 50 ul/well of lysed cells and the plates were then incubating at room temperature in the dark for 30 min. 50 ul of Stop solution was added to each well and then the plate was read at 492 nm. 8. After 48 h of cells treatment, one of the 2 plates that had been re-dosed after 24 h was re-dosed again (treatments were prepared as described above for re-dosing). One of the 2 plates that had been treated just once will remain as it was in the incubator. The remaining 2 plates were used to measure the % of survival by LDH after 48 h of single treatment and after re-dosing at 24 h (LDH assay was performed as described above). Day 3: LDH-72 h and LDH-Re-Dosing at 24 h and at 48 h After 72 h of cells treatment, there were just 2 plates left in the incubator. They were used to measure the of survival by LDH after 72 h of single treatment and after re-dosing at 24 h and 48 h (LDH assay was performed as described above).

[2] = tested on: ovarian cancer cell lines; details: cited from earlier work
[3] = tested on: human leukemia HL60 cells; details: cited from earlier work
[4] = tested on: human pancreatic cancer BxPC-3 cells; details: cited from earlier work
[5] = tested on: human pancreatic cancer AsPC-1 cells; details: cited from earlier work
[6] = cited from earlier work
metastatic breast cancer = experiment: Case reports: patients with metastatic breast cancer (CAT scan, symptoms, survival); format: in vivo, human; details: single patient
Excerpt: A patient comprising a person was diagnosed by their physician with advanced metastatic breast cancer. The metastatic breast cancer consisted of tumors, including several found in both lungs. The physician prescribed a standard set of cancer therapeutics in an attempt to reduce or maintain the tumors. […] The physician placed the patient on a paliative care regime and provided the patient with several doses of the aromatase inhibitor, letrazole. […] The patient was next administered a treatment consisting of artemether at a dose of 40 mg OD, presented in a lipid filled capsule comprising tributyrin and G43.
A patient comprising a person was diagnosed by their physician with extensive metastaic breast cancer. The patient presented with tumors in brain liver and lungs. The patient also presented with symptoms that included shortness of breath and a persistent cough. The patient informed the physician that they would not take part in a standard chemotherapy treatment protocol. The physician informed the patient that they would only live for about three months survival. The patient was instead administered artemether at a dose of 40 mg OD, presented as a lipid filled capsule comprising tributyrin and G43. As a result of the treatment, the symptoms the patient suffered from, including, shortness of breath and a persistent cough diminished over the weeks following treatment with arthemether. […]

For `C[C@H]1[C@@H](OCc2ccc(C(=O)O)cc2)O[C@@H]2O[C@@]3(C)CC[C@H]4[C@H](C)CC[C@@H]1[C@@]24OO3` [Artelinic acid], the rate of neurotoxicity [1] is given as “lower rate of neurotoxicity than the related artemisin derivatives arteether and artemether”.
For `C[C@H]1[C@H](OC(=O)CCC(=O)O)O[C@@H]2O[C@@]3(C)CC[C@H]4[C@H](C)CC[C@@H]1[C@@]24OO3` [Artesunate], the “survival of MCF-7 cells, therapeutic administered individually” value (MCF-7 cells) was “decreased the survival of MCF-7 cells”.
With `O=c1c(-c2ccc(O)cc2)coc2cc(O)ccc12` [Daidzein] the “percent of survival of MCF-7 cells, administered more than once” value (from here on “percent … administered more than once”) (MCF-7 cells) was “decreasing marginally” and the “effect on percent of survival of MCF-7 cells, dosed singly” value (from here on “effect on percent”) (MCF-7 cells) was “only minimal effect”.
With `Oc1ccc([C@H]2COc3cc(O)ccc3C2)cc1` [Equol] the “percent … administered more than once” value (MCF-7 cells) was “decreasing marginally” and the “effect on percent” value (MCF-7 cells) was “only minimal effect”.
In the case of `Oc1ccc(C=Cc2cc(O)cc(O)c2)cc1` [Resveratrol], the “percent … administered more than once” value (MCF-7 cells) is reported as “decreasing marginally” and the “effect on percent” value (MCF-7 cells) is reported as “only minimal effect”.
In the case of `CCCC(=O)[O-].[Na+]` [Sodium Butyrate], the “survival of MCF-7 cells, therapeutic administered individually” value (MCF-7 cells) is reported as “decreased the survival of MCF-7 cells”.
In the case of `CO[C@H]1O[C@@H]2O[C@@]3(C)CC[C@H]4[C@H](C)CC[C@@H]([C@H]1C)[C@@]24OO3` [artemether, (+)-(3-alpha,5a-beta,6-beta,8a-beta, 9-alpha,12-beta,12aR)-decahydro-10-methoxy-3,6,9-trimethyl-3,12-epoxy-12H-pyrano(4,3-j)-1,2-benzodioxepin], the “cytotoxicity (apoptosis, G2 cell cycle arrest)” value (“cytotoxicity” below) [2] is given as “dose- and time-dependent cytotoxicity”, the “cytotoxicity” value [3] is given as “dose- and time-dependent cytotoxicity” and the “cytotoxicity” value [4] is given as “dose- and time-dependent cytotoxicity”. The “cytotoxicity” value [5] was “dose- and time-dependent cytotoxicity”.
In the case of `C[C@@H]1CC[C@H]2[C@@H](C)C(=O)O[C@@H]3O[C@@]4(C)CC[C@@H]1[C@]32OO4` [artemisinin], the bioavailability [6] is given as “poor bioavailability”.
In the case of `N#Cc1ccc(C(c2ccc(C#N)cc2)n2cncn2)cc1` [letrazole], the “tumor progression (CAT scan)” value (metastatic breast cancer; after several doses of the aromatase inhibitor on palliative care) is reported as “progressing” and the “growth of one tumor in a lung” value (metastatic breast cancer; in three months, after several doses of the aromatase inhibitor) is reported as 50%.
